This note sets out measurements from patent US6576595B1, “Xanthone derivatives, processes for their preparation and their use for controlling harmful fungi, and compositions comprising these derivatives” (BASF Aktiengesellschaft, priority 2001, dated 2003).

What is called melting point is the temperature, or range, at which the solid turns liquid.

In data set [1] the test system is mildew of wheat (Blumeria graminis forma specialis tritici). Briefly: activity against powdery mildew of wheat (protective spray test on potted wheat seedlings). Type of data set: in vivo. Particulars: wheat seedlings cultivar Kanzler, sprayed 24 h before inoculation, assessed visually after 7 days, untreated plants 90% infected. The procedure:
The active compounds were prepared separately or jointly as a 10% strength emulsion in a mixture of 70% by weight of cyclohexanone, 20% by weight of Nekanil® LN (Lutensol® AP6, wetting agent having emulsifying and dispersing action based on ethoxylated alkylphenols) and 10% by weight of Wettol® EM (nonionic emulsifier based on ethoxylated castor oil) and diluted with water to the desired concentration.
Use example—activity against powdery mildew of wheat
Leaves of potted wheat seedlings of the cultivar “Kanzler” were sprayed to runoff point with an aqueous preparation of active compound which had been prepared from a stock solution of 10% of active compound, 63% of cyclohexanone and 27% of emulsifier. 24 hours after the spray coating had dried on, the leaves were dusted with spores of mildew of wheat (Blumeria graminis forma specialis tritici). The test plants were then placed in a greenhouse at 20-24° C. and 60 to 90% relative atmospheric humidity.
After 7 days, the extent of the mildew development was determined visually in % infection of the entire leaf area.

SMILES strings stand for the structures.

`COc1cc(C)c2c(=O)c3c(OC)cccc3oc2c1OC` gave a melting point of 158 °C.

On to `COc1cc(C)c2c(=O)c3c(oc2c1OC)C(Br)=CCC3(C)OC` (centres unmarked), for which the melting point is 162 °C.

The molecule `COc1cc(C)c2c(=O)c3c(C)c(Cl)ccc3oc2c1OC` [I-5, 7-chloro-3,4-dimethoxy-1,8-dimethylxanthen-9-one] had a melting point of 180 °C. Moreover, the “extent of the mildew development in % infection of the entire leaf area” value in data set [1] (4 ppm active compound) is “not more than 3%”. Besides, in data set [1] (16 ppm active compound), the “extent of the mildew development in % infection of the entire leaf area” value is reported as “not more than 3%”.
